Source: patent US12611415B2, “Methods and compounds for treatment of metabolic disease” (Monash University, priority 2019, dated 2026)
Entries after “also recorded” stand apart in the source; their conditions may differ.

System: C57BL6/J mice fed high fat diet (HFD)
Assay: Celecoxib / Compound I-1 treatment study in HFD fed mice
Format: in vivo, mouse
Procedure: All animal work was conducted per Australian National Health and Medical Research Council (NHMRC) guidelines for the care and use of animals in research. Seven-week-old male Sprague Dawley rats or C57BL6/J mice were randomized and housed in groups of 2-5 in a temperature-controlled room under specific-pathogen free (SPF) or standard animal housing conditions with free access to food and water.
In the observational studies, mice or rats were fed semi-purified normal chow diet (control fat diet (CFD), 7% w/w fat and 16% total energy from fat, AIN93G, Specialty Feeds Pty Ltd, Australia) or high fat diet (HFD, 36% w/w fat and 59% total energy from fat, SF03-002, Specialty Feeds Pty Ltd, Australia) for a total duration of 6, 15, 23 or 32 weeks to evaluate changes to mesenteric lymph composition, structure and function over time during the progression of obesity. Mice or rats were fed with the same CFD or HFD for 6-10 weeks prior to collection of mesenteric lymph for in vitro incubation with lymphatic endothelial cells (LECs) and adipocytes, respectively.
A “prevention study” and a “treatment study” were also conducted. Both the prevention and treatment studies included mice fed the CFD or HFD for 15 or 23 weeks, as described above. In the prevention study, an additional group of mice was fed the HFD supplemented with celecoxib at a dose equivalent to ˜29 mg/kg/day (based on average food intake) for 15 weeks. In the treatment study, animals were fed the HFD for 15 weeks followed by a HFD supplemented with celecoxib (˜29 mg/kg/day) or Compound I-1 (˜9 mg/kg/day celecoxib equivalents) for 7-8 weeks. The celecoxib was purchased from MedChemExpress (NJ, USA), and Compound I-1 was synthesized consistent with the description in WO2016/023082.
Across all studies, body mass was measured once per week. Oral glucose tolerance tests (OGTTs) were conducted at 5, 14, 22 and/or 31 weeks after commencing feeding mice the HFD or CFD. To perform OGTTs, mice were routinely handled for 2 weeks prior to minimize the stress caused by handling during the experiment. On the day of the OGTT, mice were fasted for 4 h (7-11 am) but still had free access to water. Glucose (50 mg D-glucose in 200 μL water) was administered via oral gavage and a drop of blood was collected from the tail tip at fixed time points (0, 15, 30, 60, 90 and 120 mins). Blood glucose was measured using a One-touch glucometer (AccuCheck Performa, Roche, Switzerland). Plasma was separated from the remaining blood sample via centrifugation and reserved for measurement of plasma insulin concentrations via ELISA as described above.
At the end of all experiments, mice were euthanised via cervical dislocation and rats were euthanised via intracardiac injection of sodium pentobarbitone (100 mg). Organs and tissues, including the lymph nodes and adipose tissue depots, were carefully collected. The mass of adipose tissue depots was weighed to determine adiposity.
Mesenteric adipose tissue samples (for lymphatic capillary and mesenteric lymphatic vessel analysis) and small intestine samples (for villi and lacteal analysis) were collected with fine forceps. Whole mount adipose tissue was cut into ˜3 mm×3 mm×2 mm pieces and whole mount small intestine was cut into 1.5 cm segments. Immediately after collection, the tissue samples were fixed in 4% paraformaldehyde in PBS at 4° C. overnight. Fat associated lymph clusters (FALCs) were identified by intraperitoneal injection of FluoSphere Carboxylate-Modified Nanospheres, 100 nm, yellow-green (505/515, Invitrogen, CA, USA) and collected with fine forceps under a Zeiss Stemi 2000-CS surgical microscope (2.5× magnification) with a fluorescence adaptor (Nightsea, MA, USA). The fluorescent light was filtered through a cyan color light filter (Electron Microscopy Science, PA, USA) to visualize the nanospheres and thus the FALCs. FALCs were cleaned of adipose tissue after collected and placed whole in 4% paraformaldehyde in PBS at 4° C. overnight. […]

[1] = Compound I-1 ~9 mg/kg/day celecoxib equivalents, celecoxib at a 3.2-fold higher dose
[2] = HFD 15 weeks, then 7 weeks drug in HFD feed
[3] = HFD 15 weeks, then 7 weeks drug in HFD feed, Compound I-1 ~9 mg/kg/day celecoxib equivalents, celecoxib ~29 mg/kg/day

## CCCCCCCCCCCCCCCC(=O)OCC(COC(=O)CCCCCCCCCCCCCCC)OC(=O)CCCCCCCCC(=O)Oc1cc(C)cc(C)c1C(C)(C)CC(=O)NS(=O)(=O)c1ccc(-n2nc(C(F)(F)F)cc2-c2ccc(C)cc2)cc1 [Compound I-1]
[1]
  body weight gain induced by HFD (obesity): significantly reduced; also recorded: reverses, more effectively
  hyperinsulinemia in the fasted state and after glucose challenge (insulin resistance): significantly improved; also recorded: reverses, more effectively
  oral glucose tolerance: significantly improved
Compound I-1 ~9 mg/kg/day celecoxib equivalents, compared with celecoxib at a 3.2-fold higher dose
  SAT and VAT accumulation: more significantly reduced
[2]
  cholesterol levels in mesenteric lymph: decreased
  lymph lipid profile (lipidomic analysis of mesenteric lymph) / lymph composition: shift in the lymph lipid profile from a HFD-like toward a more CFD-like profile; also recorded: reverses, more effectively
  total concentrations of triglyceride, phospholipid and glucose in mesenteric lymph: trends toward a decrease
  total free fatty acid (FFA) in mesenteric lymph: significantly increased
[3]
  immune cell numbers in mesenteric lymph nodes reversed to levels similar to CFD mice: successfully reversed
  immune cells in the mesenteric lymph fluid: reduced
  lymph leakage into VAT: reversed; also recorded: reverses, more effectively
  mesenteric lymph levels of PGE2: reduced
  mesenteric lymph levels of VEGF-C: below the limit of quantification; also recorded: reverses, more effectively
  mesenteric lymphatic branching: reversed; also recorded: reverses, more effectively
Compared with non-lymph-targeted celecoxib
  mesenteric lymphatic dysfunction, visceral obesity, inflammation, glucose intolerance, and insulin resistance associated with obesity: reverse, more effectively
